Results on three compounds are retold here after patent US4482553A, “Benzothienylglycyl cephalosporin derivatives” (priority 1983, dated 1984).

Holding throughout (format): cell-based
One experiment deals with E. coli. Nature of the experiment: standard in vitro agar dilution MIC (Table I), E. coli. The note with it: Escherichia coli.
A further experiment concerns Staph. epi. Nature of the experiment: standard in vitro agar dilution MIC (Table I), Staph. epi. Background: In agar dilution the substance is mixed into plates at graded concentrations.
The next experiment has as its system Staph. aureus. Nature of the experiment: standard in vitro agar dilution MIC (Table I), Staph. aureus. The following applies: Staphylococcus aureus.
Another experiment concerns H. influ. Nature of the experiment: standard in vitro agar dilution MIC (Table I), H. influ. The source says:
The antibacterial activity of several compounds of the invention has been determined in standard in vitro agar dilution assays against a variety of gram positive and gram negative microorganisms. The following Tables present typical minimum inhibitory concentrations (MIC's) in μg/ml for several compounds of the invention when evaluated against the indicated microorganisms. MIC's for several known compounds are also presented for comparison.

A further experiment deals with Strep. A. Nature of the experiment: standard in vitro agar dilution MIC (Table I), Strep. A.
The subject of another experiment is Klebsiella. Nature of the experiment: standard in vitro agar dilution MIC (Table I), Klebsiella.
In another experiment the test system is Strep. PN. The experiment can be described thus: standard in vitro agar dilution MIC (Table I), Strep. PN. The note with it: strain PARK, read-out: MIC.
Another experiment has as its system Strep. D. Nature of the experiment: standard in vitro agar dilution MIC (Table I), Strep. D.
[1] abbreviates: Table I, agar dilution, strain EPI1, read-out: MIC.
[2] abbreviates: Klebsiella, Table I, agar dilution, strain X26, read-out: MIC.
[3] abbreviates: Klebsiella, Table I, agar dilution, strain X68, read-out: MIC.

Converted amounts (≈) assume the structure as drawn. Where two headings read alike, the source gives them in different places.

Usually MIC stands for the lowest concentration found to suppress growth. For the compound `COc1c([C@H](N)C(=O)NC2C(=O)N3C(C(=O)O)=C(C)CSC23)sc2ccccc12` (stereo partly drawn) [Ex. 9B, L-7-(3-methoxy-2-benzothienylglycylamido)-3-methyl-3-cephem-4-carboxylic acid], the MIC was more than 128 µg/mL with E. coli (strain EC14); more than 128 µg/mL against E. coli (strain N10); more than 128 µg/mL against E. coli (strain TEM); 128 µg/mL (≈ 295 µM) in the experiment with Staph. epi; 32 µg/mL (≈ 73.8 µM) in the experiment on Staph. epi (Table I, agar dilution, strain 222, read-out: MIC); more than 128 µg/mL in the experiment on Staph. aureus (strain S13E). For the same compound, the minimum inhibitory concentration (MIC) in the experiment on Staph. aureus (strain V41, read-out: MIC) was more than 128 µg/mL; in the experiment on Staph. aureus (strain X1.1, read-out: MIC), 16 µg/mL (≈ 36.9 µM); with Staph. aureus (strain X400, read-out: MIC) it was more than 128 µg/mL; in the experiment with H. influ. (strain 76, read-out: MIC) it was 64 µg/mL (≈ 148 µM); against H. influ. (strain C.L.), more than 128 µg/mL; in the experiment on Strep. A (Table I, agar dilution, strain C203, read-out: MIC) it was 4 µg/mL (≈ 9.23 µM). The minimum inhibitory concentration (MIC) in the experiment with Klebsiella (Klebsiella) is more than 128 µg/mL; against Klebsiella (Table I, agar dilution, strain KAE), more than 128 µg/mL; with Klebsiella (Table I, agar dilution, strain X68), more than 128 µg/mL; in the experiment on Strep. PN, 32 µg/mL (≈ 73.8 µM); with Strep. D (strain 2041), more than 128 µg/mL; in the experiment on Strep. D (strain X66), more than 128 µg/mL.

As to `CC1=C(C(=O)O)N2C(=O)[C@@H](NC(=O)[C@H](N)c3ccccc3)[C@H]2SC1` [Cephalexin, reference compound], the MIC in the experiment on Staph. epi was 8 µg/mL (≈ 23 µM); in the experiment on Staph. epi (setting [1]), 32 µg/mL (≈ 92.1 µM); against H. influ. (strain 76), 8 µg/mL (≈ 23 µM); in the experiment with H. influ. (strain C.L.) it was 8 µg/mL (≈ 23 µM); in the experiment with Strep. A, 0.5 µg/mL (≈ 1.44 µM); in the experiment with Klebsiella (setting [2]) it was 4 µg/mL (≈ 11.5 µM). For the same compound, the MIC with Klebsiella (setting [3]) came to 8 µg/mL (≈ 23 µM); in the experiment with Strep. PN, 2 µg/mL (≈ 5.76 µM).

Take `CC1(C)S[C@@H]2[C@H](NC(=O)[C@H](N)c3ccccc3)C(=O)N2[C@H]1C(=O)O` [Ampicillin, reference compound]: the MIC against E. coli (strain EC14) is 4 µg/mL (≈ 11.4 µM); against E. coli (strain N10), 8 µg/mL (≈ 22.9 µM); with Staph. epi (setting [1]), 8 µg/mL (≈ 22.9 µM); with Staph. aureus (strain S13E) it was 64 µg/mL (≈ 183 µM); in the experiment with H. influ. (strain 76), 16 µg/mL (≈ 45.8 µM); against H. influ. (strain C.L.), 0.5 µg/mL (≈ 1.43 µM). The minimal inhibitory concentration (MIC) with Klebsiella (setting [2]) came to 16 µg/mL (≈ 45.8 µM); in the experiment with Klebsiella (setting [3]), 16 µg/mL (≈ 45.8 µM); with Strep. D (strain 2041, read-out: MIC) it was 2 µg/mL (≈ 5.72 µM); in the experiment with Strep. D (strain X66, read-out: MIC), 4 µg/mL (≈ 11.4 µM).
